# According to patent US20070077607A1, “Novel screening method” (priority 2003, published 2007):
# Read-outs that look alike come from different tables or passages of the source.
# What was measured:
# HOB cells = test: Cell adhesion assay (cell attachment and cell spreading), HOB cells; assay type: cell-based, human; conditions: for inhibition at 5 µM: Homo sapiens
# Procedure: To evaluate cell attachment and cell spreading exponentially growing cells were detached from substratum by trypsinisation (0.25% (v/v) trypsin in 5 mM EDTA), collected into medium containing a ˜7% (V/V) final concentration of FCS, washed twice with medium without serum and then plated (2×10^4cells/well) onto FN-coated 96-well plates with and without further immobilisation of tTG. After a maximum of 20-minute incubation (to minimise the effect of any endogenous secreted proteins) at 37° C. in a 5% CO2 atmosphere, cells were fixed in 3.7% (w/v) paraformaldehyde in PBS pH 7.4, permeabilised in 0.1% (v/v) Triton X-100 and stained with May Grunwald and Giemsa stain (Jones et al 1997, Verderio et al. 2000). In some cases cells were pre-treated for 15 hours with 1 mM cycloheximide before plating to rule out any effects of endogenous secreted adhesion molecules. Digital images of three non-overlapping fields covering the central portion of each well was captured using a video digital camera (Olympus DP10) and examined using the Image Analysis programme Scion Image (National Institute of Health, USA). A total of at least nine images of separate fields per sample were examined for a total of at least 900 cells in the FN control. The number of cell particles in each field was measured by thresholding and particle analysis setting a minimum particle size of 50 pixels. Spread cells were analysed and quantified by “density slicing” and particle analysis.
# Adhesion of cells to FN was decreased by pre-incubation with RGD synthetic peptide (50 μg/ml, ˜75 ∝M, 100 μg/ml ˜150 μM, or 200 μg/ml ˜300 μM) or function blocking anti-integrin antibodies 40 μg/ml anti-β1 integrin (JB1A), 30 μg/ml anti-α5 integrin (P1D6). Detached cells (as described above) were pre-incubated in suspension (2×10^5cells/ml) in serum-free medium containing either RGD peptide or anti-integrins antibodies at 37° C. for 10 minutes in 5% CO2 atmosphere, and then seeded in the presence of the peptides.
# guinea pig liver tTG = target: T1, guinea pig liver tTG (Cavia cutleri, UniProt P08587); test: tTG cross-linking activity (incorporation of biotinylated cadaverine into FN); assay type: biochemical
# T1 construct: Purified guinea pig liver tTG was either obtained by Sigma-Aldrich or purified in the laboratory; tissue Sigma-Aldrich (or purified in the laboratory according to Leblanc et al., 1999); host or cells: guinea pig liver
# T1 sequence (P08587 2-690): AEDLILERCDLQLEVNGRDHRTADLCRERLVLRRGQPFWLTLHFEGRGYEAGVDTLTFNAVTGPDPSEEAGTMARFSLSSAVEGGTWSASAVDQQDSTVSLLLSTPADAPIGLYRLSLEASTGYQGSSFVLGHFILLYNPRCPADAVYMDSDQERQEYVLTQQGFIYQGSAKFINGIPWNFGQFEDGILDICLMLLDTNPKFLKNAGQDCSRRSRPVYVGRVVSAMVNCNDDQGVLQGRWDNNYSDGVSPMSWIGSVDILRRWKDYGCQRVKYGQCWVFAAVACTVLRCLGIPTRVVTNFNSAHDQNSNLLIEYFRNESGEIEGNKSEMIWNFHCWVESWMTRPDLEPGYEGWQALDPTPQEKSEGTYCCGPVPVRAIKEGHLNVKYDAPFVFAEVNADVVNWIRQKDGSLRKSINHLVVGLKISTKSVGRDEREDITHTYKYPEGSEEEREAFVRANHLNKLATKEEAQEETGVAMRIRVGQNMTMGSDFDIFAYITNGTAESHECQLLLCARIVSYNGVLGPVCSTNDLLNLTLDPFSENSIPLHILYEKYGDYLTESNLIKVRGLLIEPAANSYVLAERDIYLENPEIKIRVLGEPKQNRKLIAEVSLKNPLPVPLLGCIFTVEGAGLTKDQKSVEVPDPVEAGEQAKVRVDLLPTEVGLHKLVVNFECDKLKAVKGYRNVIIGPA
# Procedure: (§1) The wells of a 96-well plate (0.32 cm^2) were coated with human plasma FN (5 μg/ml) in 50 mM Tris-HCl, pH 7.4, […], by incubation at 4° C. for approximately 15 h. For tTG immobilisation, the FN solution was removed, the wells were washed once in 50 mM Tris-HCl, pH 7.4 and then incubated with purified guinea pig liver tTG (20 μg/ml) in PBS pH 7.4 containing 2 mM EDTA pH 7.4, 100 μl/well. For control wells coated with tTG only, the tTG solution was added directly to tissue culture plastic (TCP). After one hour-incubation at 37° C., the tTG solution was removed and wells were washed once in 50 mM Tris-HCl, pH 7.4 and once in serum-free culture medium before cell seeding. The presence of tTG immobilised on FN was confirmed by an ELISA-type assay (Jones et al. 1997), using Cub 74 (1:5000). Absorbance values were read in an ELISA plate reader at 450 nm (Tecan Spectrafluor). Confirmation that the immobilised tTG was still active as a Ca^2+-dependent ε-(γ-glutamyl)lysine crosslinker was gained by measuring tTG activity with a microtitre assay that is based on the incorporation of biotinylated cadaverine into FN in the presence of 5 mM CaCl2 and 5 mM DTT (Jones et al. 1997) and compared with the activity of free tTG standard. To confirm that the cross-linking activity was Ca^2+-dependent, 5 mM CaCl2 was replaced with 5 mM EDTA pH 7.4. Absorbance values were read at 450 nm and data were expressed as absorbance value with Ca^2+ in the reaction buffer minus background absorbance value with EDTA in the reaction buffer. Similarly to tTG, FN antigen was detected by using a modified ELISA based on a rabbit polyclonal anti-FN antibody (1/5000) followed by peroxidase-labelled anti-rabbit IgG (1/5000).
# human plasma FN = test: ELISA-type assay of tTG bound to immobilised FN; assay type: binding; conditions: 1 mM GTP-γS; ELISA using Cub 74
# Procedure: as §1, with “Confirmation that the immobilised tTG was still active as a Ca^2+-dependent ε-(γ-glutamyl)lysine crosslinker was gained by measuring tTG activity with a microtitre assay that is based on the incorporation of biotinylated cadaverine into FN in the presence of 5 mM CaCl2 and 5 mM DTT (Jones et al. 1997) and compared with the activity of free tTG standard. To confirm that the cross-linking activity was Ca^2+-dependent, 5 mM CaCl2 was replaced with 5 mM EDTA pH 7.4.” left out
# [1] = target: T2, tTG activity found at the HOB cell-surface (Homo sapiens, UniProt P21980); test: tTG activity at the HOB cell-surface; assay type: cell-based; conditions: R283 treatment; data not shown
# T2 construct: the low tTG activity found at the HOB cell-surface; endogenous in cells; host or cells: primary human osteoblasts (HOB)
# T2 sequence (P21980 1-687): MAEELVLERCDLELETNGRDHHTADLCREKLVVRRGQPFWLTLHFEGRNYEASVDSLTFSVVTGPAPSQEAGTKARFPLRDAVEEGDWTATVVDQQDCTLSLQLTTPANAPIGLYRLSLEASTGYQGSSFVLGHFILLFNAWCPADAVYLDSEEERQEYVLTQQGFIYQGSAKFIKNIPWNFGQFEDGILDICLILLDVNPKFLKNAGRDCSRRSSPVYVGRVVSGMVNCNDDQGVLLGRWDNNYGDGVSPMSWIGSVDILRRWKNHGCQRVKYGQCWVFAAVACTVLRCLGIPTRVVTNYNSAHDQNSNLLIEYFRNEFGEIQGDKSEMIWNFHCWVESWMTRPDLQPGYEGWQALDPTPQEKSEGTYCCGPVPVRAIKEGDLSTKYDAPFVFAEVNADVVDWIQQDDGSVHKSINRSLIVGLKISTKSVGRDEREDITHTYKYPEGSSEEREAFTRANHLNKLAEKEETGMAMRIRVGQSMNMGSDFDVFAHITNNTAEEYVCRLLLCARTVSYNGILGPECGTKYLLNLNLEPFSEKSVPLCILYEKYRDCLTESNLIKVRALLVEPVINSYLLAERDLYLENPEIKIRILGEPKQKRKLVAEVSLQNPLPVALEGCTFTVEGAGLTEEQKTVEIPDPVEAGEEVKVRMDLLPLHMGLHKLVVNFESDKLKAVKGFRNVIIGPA
# [2] = enzyme pre-treatment 15 mU/ml, RGD 100 μg/ml
compound,measurement,setting,value
chondroitinase ABC,cell adhesion to FN,HOB cells; chondroitinase ABC 15 mU/ml,no significant affect
same,RGD-independent cell attachment on tTG-FN,HOB cells; [2],only marginally affected
same,RGD-independent cell spreading on tTG-FN,HOB cells; [2],did not significantly alter
Nc1nc2c(ncn2[C@@H]2O[C@H](COP(=O)(O)OP(=O)(O)OP(O)(O)=S)[C@@H](O)[C@H]2O)c(=O)[nH]1 [GTP-γS],transamidating activity of FN-bound tTG,"guinea pig liver tTG; GTP-γS, DMEM with reducing agent, data not shown",acts as transamidating inhibitor
same,RGD-independent cell attachment and spreading mediated by tTG-FN,"HOB cells; 1 mM GTP-γS, RGD 100 μg/ml",partially but significantly reduced
same,level of tTG immobilised on FN,human plasma FN,did not significantly alter
CC(=O)CSc1n(C)cc[n+]1C.[Cl-] [R283],transamidating activity of immobilised tTG,guinea pig liver tTG; 100 μM R283,completely blocked
same,cell adhesion on FN bound to R283-inactivated tTG relative to adhesion on FN with RGD peptide,HOB cells; 100 μM R283,twice
same,cell adhesion on FN bound to R283-inactivated tTG versus without R283,"HOB cells; 100 μM R283, with or without RGD peptide",not significantly different
same,tTG activity at the HOB cell-surface,[1],inhibited to negligible values
GRADSP [RAD peptide],cell attachment on FN compared to untreated cells (RAD 0),HOB cells; 200 μg/ml RAD control peptide,reduction in cell attachment
O[C@@H](CS)[C@@H](O)CS [DTT],increase of transamidating activity of FN-bound tTG,guinea pig liver tTG; DMEM with 5 mM DTT versus DMEM,approx 6 fold
Cn1c2ccccc2c2c3c(c4c5ccccc5n(CCC#N)c4c21)CNC3=O [GO6976],effect on inhibition of attachment and spreading mediated by the RGD peptide,"HOB cells; 5 μM GO6976, FN + RGD",significantly augment the inhibition
same,inhibition at 5 µM,"HOB cells; 5 μM GO6976, RGD peptide, read-out: inhibition of attachment mediated by the tTG-FN complex",> 90%
same,inhibition at 5 µM,"HOB cells; 5 μM GO6976, RGD peptide, read-out: inhibition of spreading mediated by the tTG-FN complex",~85%
same,inhibition at 5 µM,"HOB cells; 5 μM GO6976, control peptide RAD, read-out: inhibition of attachment on FN",~30%
same,inhibition at 5 µM,"HOB cells; 5 μM GO6976, control peptide RAD, read-out: inhibition of spreading on FN",~30%
